# Tests used:
# [1] = target: Homeodomain-interacting protein kinase 3 (Homo sapiens, UniProt Q9H422); assay: Selectivity interaction (KinomeScan (DiscoverX)) EUB0000666a HIPK3; settings: at 10 µM
# [2] = target: Protein arginine N-methyltransferase 6 (Homo sapiens, UniProt Q96LA8); settings: at 1 µM
# [3] = target: G protein-coupled receptor kinase 5 (Homo sapiens, UniProt P34947); assay: Selectivity interaction (Kinase panel (DSF assay)) EUB0001558a GRK5
# [4] = target: Phosphatidylinositol 4-phosphate 3-kinase C2 domain-containing subunit beta (Homo sapiens) (UniProt O00750); assay: Selectivity interaction (Kinase panel (KiNativ target engagement assay in Jurkat cells)) EUB0001635a PIK3C2B; assay type: cell-based; settings: Selectivity number of off-targets 0.0, Selectivity number of targets 233.0, Source Knowledge https://www.sciencedirect.com/science/article/pii/S2451945619300674?via%3Dihub, at 1 µM
# [5] = target: Serine/threonine-protein kinase 24 (Homo sapiens) (UniProt Q9Y6E0); assay: Selectivity interaction (ActivX KiNativ screen (kinase selectivity in THP-1 cell lysates)) EUB0000639a STK24; assay type: subcellular; settings: lysate
# [6] = target: Mitogen-activated protein kinase kinase kinase kinase 1 (Homo sapiens) (UniProt Q92918); assay: Selectivity interaction (ActivX KiNativ screen (kinase selectivity in THP-1 cell lysates)) EUB0000639a MAP4K1; assay type: subcellular; settings: lysate, at 5 µM
# [7] = target: Tyrosine-protein kinase ABL1 (Homo sapiens, UniProt P00519); assay: Selectivity interaction (Kinase panel (Invitrogen)) EUB0000639a ABL1; settings: at 200 nM
# [8] = target: T1, MAP/microtubule affinity-regulating kinase 4 (Homo sapiens) (UniProt Q96L34); assay: Selectivity interaction (ActivX KiNativ screen (kinase selectivity in THP-1 cell lysates)) EUB0000639a MARK4; assay type: subcellular; settings: lysate, at 0.2 µM
# T1 sequence (whole entry): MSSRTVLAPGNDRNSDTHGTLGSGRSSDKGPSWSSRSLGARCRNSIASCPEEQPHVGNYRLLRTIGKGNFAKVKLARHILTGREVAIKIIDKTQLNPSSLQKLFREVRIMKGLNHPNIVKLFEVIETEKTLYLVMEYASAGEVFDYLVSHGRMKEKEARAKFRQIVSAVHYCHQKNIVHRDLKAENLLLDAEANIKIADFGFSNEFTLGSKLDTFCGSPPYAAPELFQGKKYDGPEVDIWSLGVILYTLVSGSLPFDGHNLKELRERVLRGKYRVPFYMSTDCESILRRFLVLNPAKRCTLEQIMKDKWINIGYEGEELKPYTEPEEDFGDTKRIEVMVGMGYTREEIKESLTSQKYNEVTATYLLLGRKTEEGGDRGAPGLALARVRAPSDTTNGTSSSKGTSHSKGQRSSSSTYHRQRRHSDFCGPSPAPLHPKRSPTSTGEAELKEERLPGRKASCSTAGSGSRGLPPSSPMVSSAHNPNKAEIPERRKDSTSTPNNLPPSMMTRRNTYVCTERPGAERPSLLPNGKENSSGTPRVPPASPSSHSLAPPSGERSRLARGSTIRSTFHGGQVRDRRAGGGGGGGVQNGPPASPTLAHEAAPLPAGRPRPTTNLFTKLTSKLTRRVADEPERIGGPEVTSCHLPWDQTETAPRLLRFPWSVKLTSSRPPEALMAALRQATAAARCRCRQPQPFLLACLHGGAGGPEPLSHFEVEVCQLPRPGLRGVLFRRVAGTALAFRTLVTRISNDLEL
# [9] = target: Tyrosine-protein kinase Lyn (Homo sapiens, UniProt P07948); assay: Selectivity interaction (ActivX KiNativ screen (kinase selectivity in THP-1 cell lysates)) EUB0000639a LYN; assay type: subcellular; settings: lysate, at 0.2 µM
# [10] = target: 5'-AMP-activated protein kinase catalytic subunit alpha-1 (Homo sapiens, UniProt Q13131); assay: Selectivity interaction (Kinase panel (Invitrogen)) EUB0000639a PRKAA1; settings: at 200 nM
# [11] = target: Serine/threonine-protein kinase 32C (Homo sapiens) (UniProt Q86UX6); assay: Selectivity interaction (KinomeScan (DiscoverX)) EUB0000618a STK32C; settings: at 10 µM
# [12] = target: T2, Serine/threonine-protein kinase MAK (Homo sapiens) (UniProt P20794); assay: Selectivity interaction (KinomeScan (DiscoverX)) EUB0000618a MAK; settings: at 10 µM
# T2 sequence (whole entry): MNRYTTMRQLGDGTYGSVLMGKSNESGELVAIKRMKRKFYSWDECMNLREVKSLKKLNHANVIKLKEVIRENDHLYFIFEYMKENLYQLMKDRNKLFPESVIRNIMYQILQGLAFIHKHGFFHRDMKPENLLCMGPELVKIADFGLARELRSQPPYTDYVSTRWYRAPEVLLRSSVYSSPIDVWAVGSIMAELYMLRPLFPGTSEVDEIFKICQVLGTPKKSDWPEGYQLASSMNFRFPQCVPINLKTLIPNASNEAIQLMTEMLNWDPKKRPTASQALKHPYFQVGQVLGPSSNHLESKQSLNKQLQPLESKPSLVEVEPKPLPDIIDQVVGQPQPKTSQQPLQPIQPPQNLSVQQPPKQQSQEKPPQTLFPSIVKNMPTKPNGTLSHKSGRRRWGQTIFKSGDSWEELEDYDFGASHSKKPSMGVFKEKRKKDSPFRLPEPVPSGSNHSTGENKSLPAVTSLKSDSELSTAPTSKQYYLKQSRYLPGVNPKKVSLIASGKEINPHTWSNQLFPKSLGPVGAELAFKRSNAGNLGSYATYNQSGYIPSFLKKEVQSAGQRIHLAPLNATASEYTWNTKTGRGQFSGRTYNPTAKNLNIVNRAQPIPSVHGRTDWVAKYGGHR
# [13] = target: Serine/threonine-protein kinase N2 (Homo sapiens, UniProt Q16513); assay: Selectivity interaction (KinomeScan (DiscoverX)) EUB0000695a PKN2; settings: at 100 nM
# [14] = target: Serine/threonine-protein kinase Nek4 (Homo sapiens) (UniProt P51957); assay: Selectivity interaction (SelectScreen profiling (Invitrogen)) EUB0000607a NEK4; settings: at 2 µM
# Chain of Serine/threonine-protein kinase 24 (Homo sapiens) (Q9Y6E0 whole entry, looked up): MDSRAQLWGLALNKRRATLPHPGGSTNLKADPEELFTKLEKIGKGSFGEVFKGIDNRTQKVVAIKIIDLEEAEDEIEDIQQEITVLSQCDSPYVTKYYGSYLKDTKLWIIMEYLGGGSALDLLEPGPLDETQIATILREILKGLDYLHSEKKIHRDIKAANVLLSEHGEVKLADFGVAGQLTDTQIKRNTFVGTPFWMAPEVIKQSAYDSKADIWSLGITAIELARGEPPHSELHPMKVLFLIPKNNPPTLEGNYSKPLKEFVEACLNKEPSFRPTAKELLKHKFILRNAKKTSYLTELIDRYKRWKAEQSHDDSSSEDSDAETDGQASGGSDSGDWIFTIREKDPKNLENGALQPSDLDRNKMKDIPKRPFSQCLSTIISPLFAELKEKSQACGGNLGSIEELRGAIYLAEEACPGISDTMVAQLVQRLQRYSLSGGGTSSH
# Chain of Serine/threonine-protein kinase N2 (Q16513 whole entry, looked up): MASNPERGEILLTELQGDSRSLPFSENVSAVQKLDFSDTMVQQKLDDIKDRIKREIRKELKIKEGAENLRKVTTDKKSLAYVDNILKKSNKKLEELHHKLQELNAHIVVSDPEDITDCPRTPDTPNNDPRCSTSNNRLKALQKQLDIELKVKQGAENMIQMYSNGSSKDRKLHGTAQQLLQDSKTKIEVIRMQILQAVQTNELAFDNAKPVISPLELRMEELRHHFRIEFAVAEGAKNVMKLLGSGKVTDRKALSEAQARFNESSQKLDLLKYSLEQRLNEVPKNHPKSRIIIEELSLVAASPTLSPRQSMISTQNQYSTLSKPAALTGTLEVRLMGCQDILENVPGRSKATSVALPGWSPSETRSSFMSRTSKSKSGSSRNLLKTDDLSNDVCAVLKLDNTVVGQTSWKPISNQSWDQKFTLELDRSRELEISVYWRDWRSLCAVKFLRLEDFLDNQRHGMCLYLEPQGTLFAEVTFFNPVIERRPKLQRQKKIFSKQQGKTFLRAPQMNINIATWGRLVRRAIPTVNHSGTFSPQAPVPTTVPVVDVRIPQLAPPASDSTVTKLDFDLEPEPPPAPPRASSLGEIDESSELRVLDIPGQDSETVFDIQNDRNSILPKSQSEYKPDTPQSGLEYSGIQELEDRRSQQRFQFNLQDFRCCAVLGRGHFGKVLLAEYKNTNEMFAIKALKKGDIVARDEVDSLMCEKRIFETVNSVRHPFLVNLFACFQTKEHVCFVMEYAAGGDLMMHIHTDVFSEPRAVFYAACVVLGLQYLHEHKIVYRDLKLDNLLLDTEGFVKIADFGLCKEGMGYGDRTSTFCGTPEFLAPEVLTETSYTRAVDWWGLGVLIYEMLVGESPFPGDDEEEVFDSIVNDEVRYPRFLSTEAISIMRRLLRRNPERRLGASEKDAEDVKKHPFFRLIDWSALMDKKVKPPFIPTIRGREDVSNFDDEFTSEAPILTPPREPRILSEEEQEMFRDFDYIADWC
# Chain of Homeodomain-interacting protein kinase 3 (Q9H422 whole entry, looked up): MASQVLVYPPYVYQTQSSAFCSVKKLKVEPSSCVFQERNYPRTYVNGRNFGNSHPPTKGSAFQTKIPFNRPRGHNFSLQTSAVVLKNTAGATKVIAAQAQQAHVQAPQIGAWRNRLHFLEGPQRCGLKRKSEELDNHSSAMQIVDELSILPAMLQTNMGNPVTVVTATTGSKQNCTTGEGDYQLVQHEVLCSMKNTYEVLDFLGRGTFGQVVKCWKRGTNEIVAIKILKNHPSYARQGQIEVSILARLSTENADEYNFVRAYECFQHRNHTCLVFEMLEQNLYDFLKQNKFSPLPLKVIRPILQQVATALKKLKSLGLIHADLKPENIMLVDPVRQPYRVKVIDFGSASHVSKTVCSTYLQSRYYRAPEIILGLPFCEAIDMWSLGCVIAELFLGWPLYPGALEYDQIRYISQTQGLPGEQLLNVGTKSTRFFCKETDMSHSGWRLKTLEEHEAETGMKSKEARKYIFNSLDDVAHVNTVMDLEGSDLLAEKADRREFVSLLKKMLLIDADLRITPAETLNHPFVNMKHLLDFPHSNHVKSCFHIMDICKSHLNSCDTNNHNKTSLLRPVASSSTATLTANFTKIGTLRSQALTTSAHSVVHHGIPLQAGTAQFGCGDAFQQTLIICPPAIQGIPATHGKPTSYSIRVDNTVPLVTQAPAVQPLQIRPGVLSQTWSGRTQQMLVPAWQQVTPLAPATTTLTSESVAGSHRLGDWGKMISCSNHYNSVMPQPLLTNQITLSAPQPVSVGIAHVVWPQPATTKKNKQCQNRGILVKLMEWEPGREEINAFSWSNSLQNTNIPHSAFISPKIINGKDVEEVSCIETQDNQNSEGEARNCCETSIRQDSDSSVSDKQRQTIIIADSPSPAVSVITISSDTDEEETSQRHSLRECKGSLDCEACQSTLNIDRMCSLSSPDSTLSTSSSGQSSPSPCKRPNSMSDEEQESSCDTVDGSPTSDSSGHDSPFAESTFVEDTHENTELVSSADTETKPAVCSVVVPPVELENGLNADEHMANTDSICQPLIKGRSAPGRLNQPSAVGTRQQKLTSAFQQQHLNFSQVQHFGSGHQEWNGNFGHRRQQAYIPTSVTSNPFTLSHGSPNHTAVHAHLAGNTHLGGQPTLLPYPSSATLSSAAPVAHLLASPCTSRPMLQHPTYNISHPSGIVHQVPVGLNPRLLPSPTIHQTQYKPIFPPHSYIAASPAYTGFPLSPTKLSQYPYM
# Chain of Tyrosine-protein kinase ABL1 (P00519 whole entry): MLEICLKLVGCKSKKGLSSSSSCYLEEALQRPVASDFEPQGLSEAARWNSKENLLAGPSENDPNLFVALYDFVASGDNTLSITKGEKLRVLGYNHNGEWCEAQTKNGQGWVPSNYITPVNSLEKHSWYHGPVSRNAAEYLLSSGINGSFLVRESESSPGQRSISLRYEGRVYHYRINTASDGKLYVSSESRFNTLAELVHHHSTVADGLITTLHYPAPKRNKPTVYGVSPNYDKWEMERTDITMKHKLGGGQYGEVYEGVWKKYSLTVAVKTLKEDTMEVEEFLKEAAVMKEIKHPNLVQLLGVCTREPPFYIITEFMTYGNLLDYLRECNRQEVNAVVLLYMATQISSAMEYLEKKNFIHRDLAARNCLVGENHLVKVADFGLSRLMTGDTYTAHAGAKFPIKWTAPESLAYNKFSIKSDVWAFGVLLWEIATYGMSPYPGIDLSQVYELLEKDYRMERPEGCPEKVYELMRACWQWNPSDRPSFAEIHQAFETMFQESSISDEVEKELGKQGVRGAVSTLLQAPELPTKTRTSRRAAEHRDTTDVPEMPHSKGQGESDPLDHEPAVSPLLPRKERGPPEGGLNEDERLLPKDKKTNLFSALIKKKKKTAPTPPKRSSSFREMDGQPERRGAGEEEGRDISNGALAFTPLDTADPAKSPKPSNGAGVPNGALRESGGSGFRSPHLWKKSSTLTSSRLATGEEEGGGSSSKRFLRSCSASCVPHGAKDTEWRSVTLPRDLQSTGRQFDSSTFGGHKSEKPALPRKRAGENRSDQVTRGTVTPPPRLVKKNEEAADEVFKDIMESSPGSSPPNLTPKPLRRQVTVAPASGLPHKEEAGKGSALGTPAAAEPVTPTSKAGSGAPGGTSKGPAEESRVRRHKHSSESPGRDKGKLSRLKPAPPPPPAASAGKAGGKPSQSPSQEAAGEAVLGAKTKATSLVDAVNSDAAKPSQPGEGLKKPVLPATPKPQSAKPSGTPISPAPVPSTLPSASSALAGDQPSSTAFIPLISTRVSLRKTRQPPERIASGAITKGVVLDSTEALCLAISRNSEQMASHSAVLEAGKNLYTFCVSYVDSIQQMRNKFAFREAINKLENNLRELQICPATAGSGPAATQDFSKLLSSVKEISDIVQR
# Chain of Tyrosine-protein kinase Lyn (P07948 2-512 limits assumed): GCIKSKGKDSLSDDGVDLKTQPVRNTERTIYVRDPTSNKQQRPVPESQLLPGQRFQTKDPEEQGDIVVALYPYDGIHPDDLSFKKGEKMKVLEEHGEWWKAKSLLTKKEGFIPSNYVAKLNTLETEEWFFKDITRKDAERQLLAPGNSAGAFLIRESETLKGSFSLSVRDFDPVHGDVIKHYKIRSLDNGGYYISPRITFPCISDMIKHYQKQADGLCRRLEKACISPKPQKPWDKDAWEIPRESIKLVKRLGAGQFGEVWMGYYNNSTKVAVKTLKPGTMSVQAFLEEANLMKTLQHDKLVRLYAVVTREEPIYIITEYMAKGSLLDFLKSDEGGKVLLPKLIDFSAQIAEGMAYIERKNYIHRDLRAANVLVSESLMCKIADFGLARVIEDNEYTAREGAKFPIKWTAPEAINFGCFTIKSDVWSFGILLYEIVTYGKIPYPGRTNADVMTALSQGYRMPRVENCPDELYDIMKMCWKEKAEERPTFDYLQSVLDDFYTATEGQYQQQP
# Chain of Serine/threonine-protein kinase 32C (Homo sapiens) (Q86UX6 whole entry): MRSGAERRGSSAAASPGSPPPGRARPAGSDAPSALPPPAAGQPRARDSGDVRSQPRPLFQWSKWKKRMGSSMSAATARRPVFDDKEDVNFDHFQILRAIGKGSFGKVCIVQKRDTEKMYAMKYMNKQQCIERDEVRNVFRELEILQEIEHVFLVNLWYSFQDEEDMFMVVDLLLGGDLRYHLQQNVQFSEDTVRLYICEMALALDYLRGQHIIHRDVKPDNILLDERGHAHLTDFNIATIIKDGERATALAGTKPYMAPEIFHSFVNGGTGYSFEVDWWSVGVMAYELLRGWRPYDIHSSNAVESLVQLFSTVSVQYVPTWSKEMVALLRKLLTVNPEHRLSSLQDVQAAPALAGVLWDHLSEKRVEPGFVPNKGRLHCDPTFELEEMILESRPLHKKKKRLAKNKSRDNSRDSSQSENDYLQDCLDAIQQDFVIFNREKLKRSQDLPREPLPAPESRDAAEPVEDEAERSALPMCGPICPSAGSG
smiles,measurement,setting,value
O=C(NOC[C@H](O)CO)c1ccc(F)c(F)c1Nc1ccc(I)cc1F,% of control,[1],49%
CNCCN1CCC(c2cc(CN(C)C(=O)c3cccc(Oc4ccccc4)c3)ccn2)CC1,% activity,[2],> 90%
CC(C)(O)[C@H](F)CN1Cc2cc(NC(=O)c3cnn4cccnc34)c(N3CCOCC3)cc2C1=O,dTM,[3],0.2 K
C=CC(=O)Nc1ccc(C(=O)Nc2[nH]nc3c2CN(C(=O)N[C@H](CN(C)C)c2ccccc2)C3(C)C)cc1,% of engagement,[4],-18.6%
CC[C@@H]1[C@H](F)C(=O)N[C@@H]1COc1nccc2cc(C(N)=O)c(OC)cc12 [ZIMLOVISERTIB],% of inhibition,[5]; at 0.01 µM,3.4%
same,% of inhibition,[5]; at 0.04 µM,-19.7%
same,% of inhibition,[5]; at 0.2 µM,-5.9%
same,% of inhibition,[5]; at 1 µM,6%
same,% of inhibition,[5]; at 5 µM,5.4%
same,% of inhibition,[6],-4.3%
same,% of inhibition,[7],2.51%
same,% of inhibition,[8],13.2%
same,% of inhibition,[9],0%
same,% of inhibition,[10],11%
O[C@H]1CC[C@H](Nc2ncc3nc(Nc4c(F)cc(F)cc4F)n([C@H]4CCOC4)c3n2)CC1,% of control,[11],100%
same,% of control,[12],97%
Cc1cc(F)c(C(=O)Nc2cccc(-c3nncn3C(C)C)n2)cc1-n1cnc(C2CC2)c1,% of control,[13],63%
CNC(=O)Nc1ccc(-c2nc(N3CC4CCC(C3)O4)c3cnn(C4CCC5(CC4)OCCO5)c3n2)cc1,% of inhibition,[14],7%
